Target: Acetylcholinesterase (Homo sapiens, UniProt P22303)
Assay: Inhibition of human acetyl cholinesterase by Ellmann's method

Chain of Acetylcholinesterase (P22303 whole entry): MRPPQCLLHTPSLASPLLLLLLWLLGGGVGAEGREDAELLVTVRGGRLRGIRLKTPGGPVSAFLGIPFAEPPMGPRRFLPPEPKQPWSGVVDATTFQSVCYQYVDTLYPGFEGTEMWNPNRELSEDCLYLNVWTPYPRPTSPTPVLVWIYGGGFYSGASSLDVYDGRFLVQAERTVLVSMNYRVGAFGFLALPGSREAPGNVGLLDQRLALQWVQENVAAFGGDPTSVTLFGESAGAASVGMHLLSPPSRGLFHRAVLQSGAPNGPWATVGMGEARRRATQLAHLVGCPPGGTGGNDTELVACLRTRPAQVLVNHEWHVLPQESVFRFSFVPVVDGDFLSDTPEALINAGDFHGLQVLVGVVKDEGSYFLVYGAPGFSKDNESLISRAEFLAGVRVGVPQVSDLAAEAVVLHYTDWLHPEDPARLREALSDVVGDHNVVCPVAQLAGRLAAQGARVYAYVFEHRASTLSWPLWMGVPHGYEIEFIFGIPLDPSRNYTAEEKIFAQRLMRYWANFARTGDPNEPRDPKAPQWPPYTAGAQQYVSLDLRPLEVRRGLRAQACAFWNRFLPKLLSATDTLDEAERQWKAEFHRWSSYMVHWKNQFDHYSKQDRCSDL

First: COc1ccc(C2C(c3ccccc3)NC3(C(=O)Nc4ccccc43)C23Cc2cc(OC)c(OC)cc2C3=O)cc1OC (centres undefined)
Second: COc1ccc(C2C(c3ccccc3)NC3(C(=O)Nc4ccc(Cl)cc43)C23Cc2cc(OC)c(OC)cc2C3=O)cc1OC (centres undefined)
The IC50 of the first is 1.6-fold lower: 5.2 µM for the first, 8.26 µM for the second. The first is the more potent here.

Going from `COc1cc2c(cc1OC)C(=O)C1(C2)C(c2ccccc2)C(c2ccccc2)NC12C(=O)Nc1ccc(Cl)cc12` (centres undefined) to `COc1cc2c(cc1OC)C(=O)C1(C2)C(c2ccccc2)C(c2ccccc2)NC12C(=O)Nc1ccc([N+](=O)[O-])cc12` (centres undefined), the IC50 falls from 7.26 µM to 3.7 µM (2-fold). The second is the more potent here.

`COc1cc2c(cc1OC)C(=O)C1(C2)C(c2ccc(F)cc2)C(c2ccccc2)NC12C(=O)Nc1ccccc12` (centres undefined) and `COc1cc2c(cc1OC)C(=O)C1(C2)C(c2ccc(F)cc2)C(c2ccccc2)NC12C(=O)Nc1ccc(Cl)cc12` (centres undefined) are within 1.5-fold of each other in IC50: 6.86 µM for the first, 9.86 µM for the second.

`COc1ccc(C2C(c3ccccc3)NC3(C(=O)Nc4ccc([N+](=O)[O-])cc43)C23Cc2cc(OC)c(OC)cc2C3=O)cc1OC` (centres undefined) and `COc1cc2c(cc1OC)C(=O)C1(C2)C(c2ccc(F)cc2)C(c2ccccc2)NC12C(=O)Nc1ccc([N+](=O)[O-])cc12` (centres undefined) are within 1.5-fold of each other in IC50: 15.4 µM for the first, 14.3 µM for the second.

`COc1ccc(C2CN(C)C3(C(=O)Nc4ccccc43)C23Cc2cc(OC)c(OC)cc2C3=O)cc1OC` (centres undefined) and `COc1ccc(C2CN(C)C3(C(=O)Nc4ccc(Cl)cc43)C23Cc2cc(OC)c(OC)cc2C3=O)cc1OC` (centres undefined) are the same in IC50: 4.2 µM for the first, 4.2 µM for the second.

Compared with `COc1cc2c(cc1OC)C(=O)C1(C2)C(c2ccccc2Cl)C(c2ccccc2)NC12C(=O)Nc1ccc(Cl)cc12` (centres undefined), `COc1cc2c(cc1OC)C(=O)C1(C2)C(c2ccccc2Cl)C(c2ccccc2)NC12C(=O)Nc1ccc([N+](=O)[O-])cc12` (centres undefined) is 2.9-fold lower in IC50: 12.2 µM for the first, 4.2 µM for the second.

`COc1ccc(C2CN(C)C3(C(=O)Nc4ccc([N+](=O)[O-])cc43)C23Cc2cc(OC)c(OC)cc2C3=O)cc1OC` (centres undefined) and `COc1cc2c(cc1OC)C(=O)C1(C2)C(c2ccc(F)cc2)CN(C)C12C(=O)Nc1ccc([N+](=O)[O-])cc12` (centres undefined) are within 1.5-fold of each other in IC50: 6.1 µM for the first, 8.6 µM for the second.

`COc1cc2c(cc1OC)C(=O)C1(C2)C(c2ccccc2)C(c2ccccc2)NC12C(=O)Nc1ccccc12` (centres undefined) and `COc1cc2c(cc1OC)C(=O)C1(C2)C(c2ccccc2Cl)C(c2ccccc2)NC12C(=O)Nc1ccccc12` (centres undefined) are within 1.5-fold of each other in IC50: 5.12 µM for the first, 7.3 µM for the second.

Compared with `COc1cc2c(cc1OC)C(=O)C1(C2)C(c2ccc(F)cc2)CN(C)C12C(=O)Nc1ccccc12` (centres undefined), `COc1cc2c(cc1OC)C(=O)C1(C2)C(c2ccc(F)cc2)CN(C)C12C(=O)Nc1ccc(Cl)cc12` (centres undefined) is 1.7-fold higher in IC50: 2.12 µM for the first, 3.7 µM for the second. The first is the more potent here.

`COc1cc2c(cc1OC)C(=O)C1(C2)C(c2ccccc2Cl)CN(C)C12C(=O)Nc1ccc([N+](=O)[O-])cc12` (centres undefined) and `COc1cc2c(cc1OC)C(=O)C1(C2)C(c2ccccc2Cl)CN(C)C12C(=O)Nc1ccc(Cl)cc12` (centres undefined) are within 1.5-fold of each other in IC50: 7.6 µM for the first, 6.6 µM for the second.

`COc1cc2c(cc1OC)C(=O)C1(C2)C(c2ccccc2Cl)CN(C)C12C(=O)Nc1ccccc12` (centres undefined) and `COc1cc2c(cc1OC)C(=O)C1(C2)C(c2ccccc2)CN(C)C12C(=O)Nc1ccccc12` (centres undefined) are within 1.5-fold of each other in IC50: 4.3 µM for the first, 3.12 µM for the second.

`COc1cc2c(cc1OC)C(=O)C1(C2)C(c2ccccc2)CN(C)C12C(=O)Nc1ccc(Cl)cc12` (centres undefined) and `COc1cc2c(cc1OC)C(=O)C1(C2)C(c2ccccc2)CN(C)C12C(=O)Nc1ccc([N+](=O)[O-])cc12` (centres undefined) are within 1.5-fold of each other in IC50: 11.2 µM for the first, 13.2 µM for the second.

From ChEMBL document CHEMBL1287675, “Substituted spiro [2.3'] oxindolespiro [3.2″]-5,6-dimethoxy-indane-1″-one-pyrrolidine analogue as inhibitors of acetylcholinesterase” (Bioorg Med Chem Lett, 2010)
